The numbers were not newly measured in patent US5047532A, “Isolation and elucidation of Cephalostatins 5 and 6” (Arizona Board of Regents, acting on behalf of Arizona State …, priority 1989, dated 1991), which cites them from elsewhere.

This data set has as its system murine P388 lymphocytic leukemia (PS cell line). The settings on record: Pettit et al, J. Chem. Soc. Chem. Commun. 85 (1988).

Take `C[C@@H]1[C@]2(O[C@H]3C=C4[C@@H]5CC[C@H]6Cc7nc8c(nc7C[C@]6(C)[C@H]5C[C@@H](O)[C@]4(C)[C@]31O)C[C@@H]1CC[C@H]3C4=CC[C@@H]5[C@H](C)[C@@]6(OC[C@]45C(=O)C[C@@H]3[C@@]1(C)C8)OC(C)(C)C[C@H]6O)O[C@](C)(CO)C[C@H]2O` [Cephalostatin 1]: the “murine P388 lymphocytic leukemia (PS system) cell growth inhibition” value is given as “cell growth inhibitor”.
